Data reported in patent US11325899B2, “Benzofurane and benzothiophene derivatives as PGE2 receptor modulators” (IDORSIA PHARMACEUTICALS LTD, priority 2017, dated 2022).
pIC50: −log10 of the molar value.

What was measured:
EP4 receptor = target: T1, EP4 receptor (Homo sapiens, UniProt P35408); test: hEP4 cAMP assay (BT549 breast cancer cells, HTRF cAMP, PGE2 stimulation); type: cell-based; details: antagonistic activity, PGE2 6 nM (EC80)
T1 construct: BT549 breast cancer cells, express high endogenous EP4 levels and very low EP2 levels; host or cells: BT549 breast cancer cells
In short: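 BT549 cells, with endogenous EP4 and very low EP2, were preincubated 45 min at room temperature with compound in HBSS/HEPES/BSA buffer with 2 mM IBMX. They were then stimulated 30 min with 6 nM PGE2 (EC80). cAMP was measured by HTRF competitive immunoassay against a calibrator; IC50 from duplicate dose-response as % of DMSO control.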

EP2 receptor = target: T2, EP2 receptor (Homo sapiens, UniProt P43116); test: hEP2 cAMP assay (SF295 glioblastoma cells, HTRF cAMP, PGE2 stimulation); type: cell-based; details: antagonistic activity
T2 construct: SF295 glioblastoma cells express high endogenous EP2 and no EP4; host or cells: SF295 glioblastoma cells
In short: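 HTRF cAMP readout gave % cAMP relative to DMSO, fitted to IC50 with duplicate points. Compounds were preincubated 45 min at room temperature with EP2-expressing, EP4-negative SF295 cells in IBMX (2 mM)-containing buffer before a 30 min challenge with PGE2 at 75 nM final, its EC80.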

T1 sequence (P35408 whole entry): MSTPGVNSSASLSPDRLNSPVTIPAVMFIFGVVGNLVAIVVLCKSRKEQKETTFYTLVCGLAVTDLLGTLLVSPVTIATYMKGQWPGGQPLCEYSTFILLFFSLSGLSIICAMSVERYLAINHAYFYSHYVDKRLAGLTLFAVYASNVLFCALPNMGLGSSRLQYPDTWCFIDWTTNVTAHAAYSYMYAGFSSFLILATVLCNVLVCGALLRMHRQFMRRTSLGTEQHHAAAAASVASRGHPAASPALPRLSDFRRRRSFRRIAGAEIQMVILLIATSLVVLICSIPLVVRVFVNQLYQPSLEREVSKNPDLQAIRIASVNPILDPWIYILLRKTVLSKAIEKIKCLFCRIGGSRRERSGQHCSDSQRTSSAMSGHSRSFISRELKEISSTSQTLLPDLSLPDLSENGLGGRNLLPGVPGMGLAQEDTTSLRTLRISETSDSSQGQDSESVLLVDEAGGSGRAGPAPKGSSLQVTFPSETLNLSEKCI
T2 sequence (P43116 whole entry): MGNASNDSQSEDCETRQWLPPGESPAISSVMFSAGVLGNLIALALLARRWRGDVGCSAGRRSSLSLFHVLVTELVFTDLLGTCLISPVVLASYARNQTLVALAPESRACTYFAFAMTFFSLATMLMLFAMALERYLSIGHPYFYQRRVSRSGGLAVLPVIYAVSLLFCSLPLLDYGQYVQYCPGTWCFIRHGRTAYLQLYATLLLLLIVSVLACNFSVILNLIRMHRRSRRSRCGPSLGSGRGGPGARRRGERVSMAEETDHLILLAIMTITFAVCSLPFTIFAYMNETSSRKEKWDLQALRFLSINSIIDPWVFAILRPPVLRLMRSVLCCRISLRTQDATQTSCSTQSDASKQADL

CCOc1cc(-c2cc(NCCc3c(C)sc4c(C)cccc34)ncn2)ccc1C(=O)O [Example 60, 4-{6-[2-(2,7-Dimethyl-benzo[b]thiophen-3-yl)-ethylamino]-pyrimidin-4-yl}-2-ethoxy-benzoic acid]
pIC50 (EP4 receptor): 6.46
pIC50 (EP2 receptor): 7.82

CCCSc1cc(-c2cc(NCCc3c(C)sc4ccccc34)ncn2)ccc1C(=O)O [Example 88, 4-{6-[2-(2-Methyl-benzo[b]thiophen-3-yl)-ethylamino]-pyrimidin-4-yl}-2-propylsulfanyl-benzoic acid]
pIC50 (EP4 receptor): 6.16
pIC50 (EP2 receptor): 7.96

CCOc1cc(-c2cc(NCCc3c(C)sc4c(OC)ccc(F)c34)ncn2)ccc1C(=O)O [Example 55, 2-Ethoxy-4-{6-[2-(4-fluoro-7-methoxy-2-methyl-benzo[b]thiophen-3-yl)-ethylamino]-pyrimidin-4-yl}-benzoic acid]
pIC50 (EP4 receptor): 6.86
pIC50 (EP2 receptor): 7.40

CCOc1cc(-c2cc(NCCc3c(C)sc4c(C)ccc(F)c34)ncn2)ccc1C(=O)O [Example 61, 2-Ethoxy-4-{6-[2-(4-fluoro-2,7-dimethyl-benzo[b]thiophen-3-yl)-ethylamino]-pyrimidin-4-yl}-benzoic acid]
pIC50 (EP4 receptor): 6.45
pIC50 (EP2 receptor): 7.22

COc1cc(-c2cc(NCCc3c(C)sc4c(OC)ccc(Cl)c34)ncn2)ccc1C(=O)O [Example 40, 4-{6-[2-(4-Chloro-7-methoxy-2-methyl-benzo[b]thiophen-3-yl)-ethylamino]-pyrimidin-4-yl}-2-methoxy-benzoic acid]
pIC50 (EP4 receptor): 6.36
pIC50 (EP2 receptor): 7.03

Cc1cc(-c2cc(NCCc3c(C)oc4c(C)cc(F)cc34)ncn2)sc1C(=O)O [Example 2, 5-{6-[2-(5-Fluoro-2,7-dimethyl-benzofuran-3-yl)-ethylamino]-pyrimidin-4-yl}-3-methyl-thiophene-2-carboxylic acid]
pIC50 (EP4 receptor): 6.93
pIC50 (EP2 receptor): 7.64

CCc1oc2c(C)cc(F)cc2c1CCNc1cc(-c2ccc(C(=O)O)c(SC)c2)ncn1 [Example 22, 4-{6-[2-(2-Ethyl-5-fluoro-7-methyl-benzofuran-3-yl)-ethylamino]-pyrimidin-4-yl}-2-methylsulfanyl-benzoic acid]
pIC50 (EP4 receptor): 6.18
pIC50 (EP2 receptor): 6.76

CSc1cc(-c2cc(NCCc3c(C)sc4c(Cl)cc(F)cc34)ncn2)ccc1C(=O)O [Example 23, 4-{6-[2-(7-Chloro-5-fluoro-2-methyl-benzo[b]thiophen-3-yl)-ethylamino]-pyrimidin-4-yl}-2-methylsulfanyl-benzoic acid]
pIC50 (EP4 receptor): 6.18
pIC50 (EP2 receptor): 7.57

CCCc1cc(-c2cc(NCCc3c(C)sc4c(C)cc(F)cc34)ncn2)ccc1C(=O)O [Example 45, 4-{6-[2-(5-Fluoro-2,7-dimethyl-benzo[b]thiophen-3-yl)-ethylamino]-pyrimidin-4-yl}-2-propyl-benzoic acid]
pIC50 (EP4 receptor): 6.83
pIC50 (EP2 receptor): 7.32

CCOc1cc(-c2cc(NCCc3c(C#N)sc4c(OC)cccc34)ncn2)ccc1C(=O)O [Example 54, 4-{6-[2-(2-Cyano-7-methoxy-benzo[b]thiophen-3-yl)-ethylamino]-pyrimidin-4-yl}-2-ethoxy-benzoic acid]
pIC50 (EP4 receptor): 7.33
pIC50 (EP2 receptor): 7.11

CCOc1cc(-c2cc(NCCc3c(C)sc4c(C)ccc(Cl)c34)ncn2)ccc1C(=O)O [Example 66, 4-{6-[2-(4-Chloro-2,7-dimethyl-benzo[b]thiophen-3-yl)-ethylamino]-pyrimidin-4-yl}-2-ethoxy-benzoic acid]
pIC50 (EP4 receptor): 6.22
pIC50 (EP2 receptor): 7.00
